Laboratory results from ChEMBL document CHEMBL2311451, “Discovery of a selective M₄ positive allosteric modulator based on the 3-amino-thieno[2,3-b]pyridine-2-carboxamide scaffold: development of ML253, a potent and brain penetrant compound that is active in a preclinical model of schizophrenia” (Bioorg Med Chem Lett, 2013).

Tests used:
[1] = target: T1, Muscarinic acetylcholine receptor M4 (Homo sapiens, UniProt P08173); assay: Positive allosteric modulation of human muscarinic M4 receptor expressed in CHO-K1 cells assessed as leftward shift in acetylcholine response treated for 144 secs prior to acetylcholine addition measured for 5 mins by Fluo-4-AM based calcium mobilization assay; format: functional, cell-based; conditions: read-out: EC50
T1 sequence (P08173 whole entry): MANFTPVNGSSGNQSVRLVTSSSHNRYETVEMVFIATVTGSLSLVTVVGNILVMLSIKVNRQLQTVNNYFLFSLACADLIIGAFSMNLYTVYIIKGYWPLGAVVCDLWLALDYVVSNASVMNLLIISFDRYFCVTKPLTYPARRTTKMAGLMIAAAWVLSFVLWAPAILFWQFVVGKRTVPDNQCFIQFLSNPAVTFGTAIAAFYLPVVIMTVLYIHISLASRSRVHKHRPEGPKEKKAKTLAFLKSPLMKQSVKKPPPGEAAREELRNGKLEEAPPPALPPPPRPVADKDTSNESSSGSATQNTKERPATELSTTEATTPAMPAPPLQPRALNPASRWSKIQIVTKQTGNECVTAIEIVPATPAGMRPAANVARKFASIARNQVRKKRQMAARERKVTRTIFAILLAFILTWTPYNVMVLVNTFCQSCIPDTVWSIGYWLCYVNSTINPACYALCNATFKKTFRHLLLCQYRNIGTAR

[2] = target: T2, Muscarinic acetylcholine receptor M4 (Homo sapiens) (UniProt P08173); assay: Positive allosteric modulation of human muscarinic M4 receptor expressed in CHO-K1 cells assessed as leftward shift in acetylcholine response treated for 144 secs prior to acetylcholine addition measured for 5 mins by Fluo-4-AM based calcium mobilization assay relative to control; format: functional, cell-based
T2 sequence (whole entry): T1 sequence (P08173 whole entry)

[3] = target: T3, Muscarinic acetylcholine receptor M4 (Rattus norvegicus, UniProt P08485); assay: Positive allosteric modulation of rat muscarinic M4 receptor assessed as acetylcholine response
T3 sequence (P08485 whole entry): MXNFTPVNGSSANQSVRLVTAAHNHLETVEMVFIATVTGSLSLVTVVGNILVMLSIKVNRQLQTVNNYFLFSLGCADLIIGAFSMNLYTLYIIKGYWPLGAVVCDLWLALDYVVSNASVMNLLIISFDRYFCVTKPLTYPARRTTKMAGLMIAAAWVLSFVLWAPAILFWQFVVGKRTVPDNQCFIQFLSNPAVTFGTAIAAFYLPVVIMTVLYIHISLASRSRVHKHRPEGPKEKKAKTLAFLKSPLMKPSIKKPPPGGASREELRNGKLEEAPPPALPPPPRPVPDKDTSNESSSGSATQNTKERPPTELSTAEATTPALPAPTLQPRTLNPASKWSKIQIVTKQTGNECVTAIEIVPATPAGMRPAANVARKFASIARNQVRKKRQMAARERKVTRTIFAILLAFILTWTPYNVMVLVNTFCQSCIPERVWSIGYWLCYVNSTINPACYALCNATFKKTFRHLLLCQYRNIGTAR

[4] = target: Muscarinic acetylcholine receptor M2 (Rattus norvegicus, UniProt P10980); assay: Positive allosteric modulation of rat muscarinic M2 receptor assessed as acetylcholine response
Chain of Muscarinic acetylcholine receptor M2 (Rattus norvegicus, UniProt P10980) (P10980 whole entry): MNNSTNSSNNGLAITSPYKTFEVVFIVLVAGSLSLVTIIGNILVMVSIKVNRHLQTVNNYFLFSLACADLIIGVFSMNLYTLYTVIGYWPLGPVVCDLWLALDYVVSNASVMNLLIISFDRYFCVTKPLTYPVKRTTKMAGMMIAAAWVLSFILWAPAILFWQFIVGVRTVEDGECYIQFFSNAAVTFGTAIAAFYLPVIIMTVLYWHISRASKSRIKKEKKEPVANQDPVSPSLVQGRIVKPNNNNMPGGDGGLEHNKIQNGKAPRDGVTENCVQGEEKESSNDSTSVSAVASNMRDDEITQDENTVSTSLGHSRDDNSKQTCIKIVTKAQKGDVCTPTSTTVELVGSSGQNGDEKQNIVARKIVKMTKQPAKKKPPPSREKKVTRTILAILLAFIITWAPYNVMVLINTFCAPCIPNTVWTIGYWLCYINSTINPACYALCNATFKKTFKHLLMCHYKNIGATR

[5] = target: Muscarinic acetylcholine receptor M1 (Rattus norvegicus, UniProt P08482); assay: Positive allosteric modulation of rat muscarinic M1 receptor assessed as acetylcholine response
Chain of Muscarinic acetylcholine receptor M1 (Rattus norvegicus, UniProt P08482) (P08482 whole entry): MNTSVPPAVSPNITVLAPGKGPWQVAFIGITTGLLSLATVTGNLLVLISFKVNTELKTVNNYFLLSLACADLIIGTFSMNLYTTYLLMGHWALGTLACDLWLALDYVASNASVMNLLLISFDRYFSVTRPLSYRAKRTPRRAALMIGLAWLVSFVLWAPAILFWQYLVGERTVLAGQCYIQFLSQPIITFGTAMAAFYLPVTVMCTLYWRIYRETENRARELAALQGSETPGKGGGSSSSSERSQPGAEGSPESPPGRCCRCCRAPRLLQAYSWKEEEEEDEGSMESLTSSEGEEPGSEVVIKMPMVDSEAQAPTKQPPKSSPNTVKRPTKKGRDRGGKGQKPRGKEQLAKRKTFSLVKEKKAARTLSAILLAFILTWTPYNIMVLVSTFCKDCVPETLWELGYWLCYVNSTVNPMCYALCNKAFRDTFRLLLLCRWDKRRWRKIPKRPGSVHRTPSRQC

[6] = target: Muscarinic acetylcholine receptor M1 (Rattus norvegicus) (UniProt P08482); assay: Positive allosteric modulation of rat muscarinic M1 receptor assessed as acetylcholine response relative to control
Chain of Muscarinic acetylcholine receptor M1 (Rattus norvegicus) (P08482 whole entry): as above

[7] = target: Muscarinic acetylcholine receptor M4 (Rattus norvegicus) (UniProt P08485); assay: Positive allosteric modulation of rat muscarinic M4 receptor assessed as acetylcholine response at 10 uM relative to acetylcholine
[8] = target: Muscarinic acetylcholine receptor M3 (Homo sapiens, UniProt P20309); assay: Positive allosteric modulation of human muscarinic M3 receptor expressed in CHO-K1 cells assessed as leftward shift in acetylcholine response treated for 144 secs prior to acetylcholine addition measured for 5 mins by Fluo-4-AM based calcium mobilization assay; format: functional, cell-based
Chain of Muscarinic acetylcholine receptor M3 (Homo sapiens, UniProt P20309) (P20309 whole entry): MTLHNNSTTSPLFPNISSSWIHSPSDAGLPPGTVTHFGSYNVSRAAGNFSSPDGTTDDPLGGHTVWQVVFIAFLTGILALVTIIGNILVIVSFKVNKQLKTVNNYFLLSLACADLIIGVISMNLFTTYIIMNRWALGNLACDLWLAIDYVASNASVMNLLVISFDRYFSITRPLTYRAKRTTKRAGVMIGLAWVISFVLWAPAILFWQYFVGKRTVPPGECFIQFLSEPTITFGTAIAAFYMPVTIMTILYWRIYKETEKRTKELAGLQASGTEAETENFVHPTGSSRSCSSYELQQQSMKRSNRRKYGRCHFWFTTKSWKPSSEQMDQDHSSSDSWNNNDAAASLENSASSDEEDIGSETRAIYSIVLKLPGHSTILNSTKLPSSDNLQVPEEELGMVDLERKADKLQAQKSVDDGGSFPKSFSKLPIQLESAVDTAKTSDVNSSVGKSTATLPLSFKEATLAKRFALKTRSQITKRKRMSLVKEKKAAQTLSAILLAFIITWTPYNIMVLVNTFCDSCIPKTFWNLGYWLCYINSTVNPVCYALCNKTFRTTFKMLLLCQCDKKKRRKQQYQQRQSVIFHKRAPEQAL

[9] = target: Muscarinic acetylcholine receptor M2 (Rattus norvegicus) (UniProt P10980); assay: Positive allosteric modulation of rat muscarinic M2 receptor assessed as acetylcholine response relative to control
Chain of Muscarinic acetylcholine receptor M2 (Rattus norvegicus) (P10980 whole entry): as the sequence (P10980 whole entry) above

[10] = target: T2, Muscarinic acetylcholine receptor M4 (Homo sapiens); assay: Positive allosteric modulation of human muscarinic M4 receptor expressed in CHO-K1 cells assessed as leftward shift in acetylcholine response at 10 uM treated for 144 secs prior to acetylcholine addition measured for 5 mins by Fluo-4-AM based calcium mobilization assay relative to acetylcholine; format: functional, cell-based
[11] = target: Muscarinic acetylcholine receptor M1 (Homo sapiens, UniProt P11229); assay: Positive allosteric modulation of human muscarinic M1 receptor expressed in CHO-K1 cells assessed as leftward shift in acetylcholine response treated for 144 secs prior to acetylcholine addition measured for 5 mins by Fluo-4-AM based calcium mobilization assay; format: functional, cell-based
Chain of Muscarinic acetylcholine receptor M1 (Homo sapiens, UniProt P11229) (P11229 whole entry): as the sequence (P08482 whole entry) above, with V5A, S254T, S309P, K320R, G337A, V413I counted along it

Plasma [12] = assay: Fraction unbound in rat plasma; format: ADME, cell-free
[13] = target: Muscarinic acetylcholine receptor M2 (Homo sapiens) (UniProt P08172); assay: Positive allosteric modulation of human muscarinic M2 receptor expressed in CHO-K1 cells assessed as leftward shift in acetylcholine response treated for 144 secs prior to acetylcholine addition measured for 5 mins by Fluo-4-AM based calcium mobilization assay relative to control; format: functional, cell-based
Chain of Muscarinic acetylcholine receptor M2 (Homo sapiens) (P08172 whole entry): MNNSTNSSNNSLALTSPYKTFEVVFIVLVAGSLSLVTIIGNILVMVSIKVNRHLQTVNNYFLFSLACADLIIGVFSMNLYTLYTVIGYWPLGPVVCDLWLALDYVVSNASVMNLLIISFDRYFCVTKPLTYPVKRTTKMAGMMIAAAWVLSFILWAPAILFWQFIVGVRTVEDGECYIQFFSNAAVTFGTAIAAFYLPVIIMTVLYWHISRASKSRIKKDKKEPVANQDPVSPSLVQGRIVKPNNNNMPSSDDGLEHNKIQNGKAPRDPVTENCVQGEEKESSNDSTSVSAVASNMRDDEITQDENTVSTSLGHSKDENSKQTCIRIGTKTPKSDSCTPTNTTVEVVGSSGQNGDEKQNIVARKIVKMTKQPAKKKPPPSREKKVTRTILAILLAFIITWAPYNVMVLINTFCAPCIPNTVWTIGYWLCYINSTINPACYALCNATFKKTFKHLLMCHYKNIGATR

[14] = target: Muscarinic acetylcholine receptor M1 (Homo sapiens) (UniProt P11229); assay: Positive allosteric modulation of human muscarinic M1 receptor expressed in CHO-K1 cells assessed as leftward shift in acetylcholine response treated for 144 secs prior to acetylcholine addition measured for 5 mins by Fluo-4-AM based calcium mobilization assay relative to control; format: functional, cell-based
Chain of Muscarinic acetylcholine receptor M1 (Homo sapiens) (P11229 whole entry): as the sequence (P08482 whole entry) above, with V5A, S254T, S309P, K320R, G337A, V413I counted along it

[15] = target: Muscarinic acetylcholine receptor M5 (Rattus norvegicus, UniProt P08911); assay: Positive allosteric modulation of rat muscarinic M5 receptor assessed as acetylcholine response
Chain of Muscarinic acetylcholine receptor M5 (Rattus norvegicus, UniProt P08911) (P08911 whole entry): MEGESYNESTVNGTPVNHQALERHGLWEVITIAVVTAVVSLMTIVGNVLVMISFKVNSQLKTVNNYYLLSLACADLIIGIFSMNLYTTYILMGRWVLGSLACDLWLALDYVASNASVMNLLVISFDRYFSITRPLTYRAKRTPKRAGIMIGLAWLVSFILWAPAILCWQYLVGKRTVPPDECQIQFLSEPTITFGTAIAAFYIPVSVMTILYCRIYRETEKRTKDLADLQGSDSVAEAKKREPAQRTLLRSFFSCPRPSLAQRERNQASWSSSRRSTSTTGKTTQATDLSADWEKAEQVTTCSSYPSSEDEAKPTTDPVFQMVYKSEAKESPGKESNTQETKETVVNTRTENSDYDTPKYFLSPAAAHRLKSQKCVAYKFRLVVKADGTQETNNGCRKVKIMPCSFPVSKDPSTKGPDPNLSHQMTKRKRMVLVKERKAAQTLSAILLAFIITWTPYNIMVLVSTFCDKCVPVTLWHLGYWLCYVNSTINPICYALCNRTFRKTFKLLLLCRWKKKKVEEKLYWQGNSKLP

[16] = target: Muscarinic acetylcholine receptor M3 (Rattus norvegicus, UniProt P08483); assay: Positive allosteric modulation of rat muscarinic M3 receptor assessed as acetylcholine response
Chain of Muscarinic acetylcholine receptor M3 (Rattus norvegicus, UniProt P08483) (P08483 whole entry): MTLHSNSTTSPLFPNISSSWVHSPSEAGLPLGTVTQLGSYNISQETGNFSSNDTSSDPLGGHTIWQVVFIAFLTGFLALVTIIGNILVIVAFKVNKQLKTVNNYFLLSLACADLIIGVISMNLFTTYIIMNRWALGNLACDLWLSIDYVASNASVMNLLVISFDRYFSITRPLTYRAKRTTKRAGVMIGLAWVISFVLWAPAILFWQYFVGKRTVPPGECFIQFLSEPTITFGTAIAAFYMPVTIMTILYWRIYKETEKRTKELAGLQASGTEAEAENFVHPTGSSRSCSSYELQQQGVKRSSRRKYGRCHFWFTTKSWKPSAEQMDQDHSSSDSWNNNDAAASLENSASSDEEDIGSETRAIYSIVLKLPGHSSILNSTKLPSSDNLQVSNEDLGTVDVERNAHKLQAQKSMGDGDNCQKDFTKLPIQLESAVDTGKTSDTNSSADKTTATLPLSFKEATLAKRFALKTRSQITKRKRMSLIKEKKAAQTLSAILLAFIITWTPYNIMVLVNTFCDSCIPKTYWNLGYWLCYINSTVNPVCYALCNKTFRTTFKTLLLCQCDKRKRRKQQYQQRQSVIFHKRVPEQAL

[17] = target: Muscarinic acetylcholine receptor M5 (Homo sapiens, UniProt P08912); assay: Positive allosteric modulation of human muscarinic M5 receptor expressed in CHO-K1 cells assessed as leftward shift in acetylcholine response treated for 144 secs prior to acetylcholine addition measured for 5 mins by Fluo-4-AM based calcium mobilization assay; format: functional, cell-based
Chain of Muscarinic acetylcholine receptor M5 (Homo sapiens, UniProt P08912) (P08912 whole entry): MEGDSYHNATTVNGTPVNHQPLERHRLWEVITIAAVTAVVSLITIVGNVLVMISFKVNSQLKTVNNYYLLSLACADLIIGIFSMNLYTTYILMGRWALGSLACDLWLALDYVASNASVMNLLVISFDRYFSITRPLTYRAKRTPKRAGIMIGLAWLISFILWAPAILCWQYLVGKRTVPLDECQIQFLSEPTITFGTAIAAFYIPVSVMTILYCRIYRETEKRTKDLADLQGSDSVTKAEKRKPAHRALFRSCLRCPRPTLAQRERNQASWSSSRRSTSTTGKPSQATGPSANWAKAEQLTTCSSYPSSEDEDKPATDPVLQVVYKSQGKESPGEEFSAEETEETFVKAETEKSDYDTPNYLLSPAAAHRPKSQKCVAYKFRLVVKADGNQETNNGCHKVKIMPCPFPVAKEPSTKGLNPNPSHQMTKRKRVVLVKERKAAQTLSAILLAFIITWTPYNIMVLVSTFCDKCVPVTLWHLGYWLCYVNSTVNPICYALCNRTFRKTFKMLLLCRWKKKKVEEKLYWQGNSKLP

Plasma [18] = assay: Fraction unbound in human plasma; format: ADME, cell-free
[19] = target: Muscarinic acetylcholine receptor M2 (Homo sapiens, UniProt P08172); assay: Positive allosteric modulation of human muscarinic M2 receptor expressed in CHO-K1 cells assessed as leftward shift in acetylcholine response treated for 144 secs prior to acetylcholine addition measured for 5 mins by Fluo-4-AM based calcium mobilization assay; format: functional, cell-based
Chain of Muscarinic acetylcholine receptor M2 (Homo sapiens, UniProt P08172) (P08172 whole entry): as the sequence (P08172 whole entry) above

Compound	EC50 [1] [µM]	%max [2] [%]	other results
Cc1nc2sc(C(=O)NCc3ccc(C(F)(F)F)cc3)c(N)c2c(C)c1Cl	1.75	33.6	
Cc1nc2sc(C(=O)NCc3ccccc3Cl)c(N)c2c(C)c1Cl	0.16	32.4	
Cc1nc2sc(C(=O)NCc3ccncn3)c(N)c2c(C)c1Cl	0.271	78.5	
Cc1nc2sc(C(=O)NC3CCOC3)c(N)c2c(C)c1Cl (centres undefined)	0.052	92.2	
Cc1nc2sc(C(=O)NCc3ccc(F)c(F)c3)c(N)c2c(C)c1Cl	0.16	42	
Cc1nc2sc(C(=O)NCCc3ccncc3)c(N)c2c(C)c1Cl	0.128	74.5	
COc1ccc(NC(=O)c2sc3nc(C)c(Cl)c(C)c3c2N)cc1	> 10	30.7	
Cc1nc2sc(C(=O)NCc3ncccn3)c(N)c2c(C)c1Cl	0.81	51	
Cc1cc(OCc2ccncc2)nc2sc(C(=O)NCc3cccc(F)c3F)c(N)c12	0.5		EC50 [3]: 0.9 µM
COCCCNC(=O)c1sc2nc(C)c(Cl)c(C)c2c1N	0.418	85.7	
Cc1nc2sc(C(=O)NCc3ccccn3)c(N)c2c(C)c1Cl	0.356	74.1	
Cc1nc2sc(C(=O)NC3CC3)c(N)c2c(C)c1Cl	0.077	94	EC50 [4]: 0.64 µM; EC50 [5]: 0.94 µM; %max [6]: 26%; fold change (FC) [7]: 54.1; EC50 [8]: > 30 µM; %max [9]: 58%; fold change (FC) [10]: 224; EC50 [11]: 0.97 µM; Fu (Plasma [12]): 6.4%; %max [13]: 64%; EC50 [3]: 0.147 µM; %max [14]: 33%; EC50 [15]: > 30 µM; EC50 [16]: > 30 µM; EC50 [17]: > 30 µM; Fu (Plasma [18]): 1.1%; EC50 [19]: 0.55 µM
Cc1nc2sc(C(=O)NCC3CCCCC3)c(N)c2c(C)c1Cl	1.41	69.7	
Cc1nc2sc(C(=O)NCc3cnccn3)c(N)c2c(C)c1Cl	0.294	83.1	
Cc1nc2sc(C(=O)NCc3cccnc3)c(N)c2c(C)c1Cl	0.208	84.9	
Cc1nc2sc(C(=O)NCc3cccc(F)c3F)c(N)c2c(C)c1Cl	0.124	79.5	
Cc1nc2sc(C(=O)NCc3ccc4c(c3)OCO4)c(N)c2c(C)c1Cl	0.08	71.7	
Cc1nc2sc(C(=O)NCc3nccs3)c(N)c2c(C)c1Cl	0.249	65.1	
Cc1nc2sc(C(=O)NCc3ccccc3N(C)C)c(N)c2c(C)c1Cl	> 30		
